This passage reports mutagenic call and call results from PubChem BioAssay AID1259408 (Genetic Toxicology Data Bank (GENE-TOX), 2018).

Activity calls are given as the source filed them. No rule for the calls is given here.

In this data set the test system is GENE-TOX genotoxicity assays, various organisms and cells. As to the kind of experiment: GENE-TOX mutagenicity studies. As to conditions: for call: Assay Type: In vivo carcinogenicity studies.
Where [1] appears, read: Species/Cell Type: Escherichia coli polA (W3119 vs P3478), Assay Type: Rec-assay, DNA effects (bacterial DNA repair), Assay Code: RE1+, Evaluation Type: Evaluation A (Pre-1980).
The mark [2] stands for this setting: Species/Cell Type: Human diploid fibroblasts, Assay Type: Unscheduled DNA synthesis (UDS) in vitro, DNA effects, Assay Code: UDH-, Evaluation Type: Evaluation A (Pre-1980).
[3] abbreviates: Species/Cell Type: Human lymphocytes, Assay Type: Sister-chromatid exchange (SCE) in vitro, Assay Code: SCL+, Evaluation Type: Evaluation B (Post-1980).
Where [4] appears, read: Species/Cell Type: Nonhuman, Assay Type: Sister-chromatid exchange (SCE) in vitro, Assay Code: SC2+D, Dose Response: With dose response, Evaluation Type: Evaluation B (Post-1980).
Where [5] appears, read: Species/Cell Type: Saccharomyces cerevisiae, Assay Type: Mitotic recombination or gene conversion, Assay Code: YEC+, Evaluation Type: Evaluation A (Pre-1980).
Setting [6] is: Species/Cell Type: Saccharomyces cerevisiae, Assay Type: Mitotic recombination or gene conversion, Assay Code: YEH+, Evaluation Type: Evaluation A (Pre-1980).
[7] abbreviates: Species/Cell Type: Salmonella typhimurium (one or more of the five standard strains: TA98, TA100, TA1535, TA1537, and TA1538), Assay Type: Histidine reverse gene mutation, Ames assay, Assay Code: SAL+, Evaluation Type: Evaluation A (Pre-1980).
[8] abbreviates: Species/Cell Type: Bacillus subtilis (H17 vs M45), Assay Type: Rec-assay, spot test, DNA effects (bacterial DNA repair), Assay Code: REWT, Evaluation Type: Evaluation A (Pre-1980).
[9] abbreviates: Species/Cell Type: Nonhuman, Assay Code: CCG+, Evaluation Type: Evaluation A (Pre-1980).
Setting [10] is: Species/Cell Type: Saccharomyces cerevisiae, Assay Type: Reverse gene mutation, Assay Code: YERT, Evaluation Type: Evaluation A (Pre-1980).
[11] abbreviates: Species/Cell Type: Vicia faba, Assay Type: Chromosome aberrations, Assay Code: VIC+, Evaluation Type: Evaluation A (Pre-1980).

For the compound `O=C1[C@H]2CC=CC[C@H]2C(=O)N1SC(Cl)(Cl)Cl`, the mutagenic call (Species/Cell Type: Aspergillus nidulans, Assay Type: Aneuploidy, chromosome aberrations, Assay Code: ASN-, Evaluation Type: Evaluation A (Pre-1980)) was “inactive; negative”; the mutagenic call (Species/Cell Type: Aspergillus nidulans, Assay Type: Mitotic recombination, Assay Code: ASG+, Evaluation Type: Evaluation A (Pre-1980)) was “active; positive”; the mutagenic call (Species/Cell Type: Bacillus subtilis (H17 vs M45), Assay Type: Rec-assay, spot test, DNA effects (bacterial DNA repair), Assay Code: REW+, Evaluation Type: Evaluation A (Pre-1980)) is “active; positive”; the mutagenic call (Species/Cell Type: Chinese hamster lung (V79) cells, Assay Type: Forward gene mutation at the HPRT or ouabain locus, Assay Code: V79+, Evaluation Type: Evaluation A (Pre-1980)) was “active; positive”; the mutagenic call (Species/Cell Type: Chinese hamster ovary (CHO) cells, Assay Type: Forward gene mutation at the HPRT locus, Assay Code: CHO+, Evaluation Type: Evaluation B (Post-1980)) was “active; positive”; the mutagenic call (Species/Cell Type: Drosophila melanogaster, Assay Type: Sex-linked recessive lethal gene mutation, Assay Code: SRL+, Evaluation Type: Evaluation A (Pre-1980)) is “active; positive”. Moreover, the mutagenic call reads like this: (Species/Cell Type: Drosophila melanogaster, Sex: Male, Assay Type: Heritable translocation test, chromosome aberrations, Assay Code: DHTT, Evaluation Type: Evaluation A (Pre-1980)) “no conclusion”; (Species/Cell Type: Escherichia coli WP2, Assay Type: Tryptophan reverse gene mutation, Assay Code: WP2+, Evaluation Type: Evaluation A (Pre-1980)) “active; positive”; (Species/Cell Type: Escherichia coli WP2 UVRA, Assay Type: Tryptophan reverse gene mutation, Assay Code: WPU+/-*, Activation: With metabolic activation, Evaluation Type: Evaluation A (Pre-1980)) “inactive; positive without activation, negative with activation”; under setting [1], “active; positive”; under setting [2], “inactive; negative”; under setting [3], “active; positive”. The mutagenic call was “active; positive” (Species/Cell Type: Human, Assay Type: Sister-chromatid exchange (SCE) in vitro, Assay Code: SC1+, Evaluation Type: Evaluation B (Post-1980)); “active; positive” (Species/Cell Type: Mammalian polychromatic erythrocytes, Assay Type: Micronucleus test, chromosome aberrations, Assay Code: MNT+, Evaluation Type: Evaluation B (Post-1980)); “inactive; negative” (Species/Cell Type: Mouse, Sex: Male, Assay Type: Heritable translocation test, chromosome aberrations, Assay Code: HTT-, Evaluation Type: Evaluation A (Pre-1980)); “active; positive” under setting [4]; “active; positive” (Species/Cell Type: Rodents, Sex: Male, Assay Type: Dominant lethal test, Assay Code: DLT+, Evaluation Type: Evaluation A (Pre-1980)); “active; positive” under setting [5]. Moreover, the mutagenic call is “active; positive” under setting [6]; “active; positive” under setting [7]; “active; positive” (Species/Cell Type: Salmonella typhimurium, Serratia marcesens, Assay Type: Forward and reverse gene mutation, host-mediated assay, Assay Code: HM2+, Evaluation Type: Evaluation A (Pre-1980)); “inactive; negative” (Species/Cell Type: Salmonella typhimurium, Assay Type: Forward and reverse gene mutation, body fluid assay, Assay Code: BFU-, Evaluation Type: Evaluation A (Pre-1980)). Besides, the call (Species/Cell Type: Nonhuman, Assay Code: CCG+L, Evaluation Type: Evaluation A (Pre-1980)) was “active; positive”.

For the compound `CNC(=O)c1c(I)c(NC(C)=O)c(I)c(C(=O)O)c1I`, the mutagenic call was “active; positive” (Species/Cell Type: Human lymphocytes, Assay Type: Sister-chromatid exchange (SCE) in vitro, Assay Code: SCL+D, Dose Response: With dose response, Evaluation Type: Evaluation B (Post-1980)) and “active; positive” (Species/Cell Type: Human, Assay Type: Sister-chromatid exchange (SCE) in vitro, Assay Code: SC1+D, Dose Response: With dose response, Evaluation Type: Evaluation B (Post-1980)).

With `O.O.O.O.O=C([O-])[O-].[Ni+2].[Ni].[Ni]`, the mutagenic call (Species/Cell Type: Nonhuman, Assay Type: Sister-chromatid exchange (SCE) in vitro, Assay Code: SC2+, Evaluation Type: Evaluation B (Post-1980)) is “active; positive”.

Regarding `COc1cc2c(c3oc4cccc(O)c4c(=O)c13)[C@@H]1C=CO[C@@H]1O2`, the mutagenic call runs as follows: under setting [8], “no conclusion”; (Species/Cell Type: Human diploid fibroblasts, Assay Type: Unscheduled DNA synthesis (UDS) in vitro, DNA effects, Assay Code: UDH+*, Activation: With metabolic activation, Evaluation Type: Evaluation A (Pre-1980)) “active; positive”; (Species/Cell Type: Neurospora crassa, Assay Type: Forward gene mutation, Assay Code: NEF+, Evaluation Type: Evaluation A (Pre-1980)) “active; positive”; (Species/Cell Type: Nonhuman, Assay Type: Chromosome aberrations in vitro, Assay Code: CY&+, Evaluation Type: Evaluation A (Pre-1980)) “active; positive”; (Species/Cell Type: Nonhuman, Assay Type: Sister-chromatid exchange (SCE) in vivo, Assay Code: SC3+D, Dose Response: With dose response, Evaluation Type: Evaluation B (Post-1980)) “active; positive”; (Species/Cell Type: Saccharomyces cerevisiae, Assay Type: Mitotic recombination or gene conversion, Assay Code: YEH+*, Activation: With metabolic activation, Evaluation Type: Evaluation A (Pre-1980)) “active; positive”. In addition, the mutagenic call under setting [7] was “active; positive”. Moreover, under setting [9], the call was “active; positive”.

As for `C/C=C/c1ccc(O)c(OC)c1`, the mutagenic call under setting [3] is “active; positive”.

With `NNC(=O)COc1ccc(Br)cc1CN1CCOCC1`, the mutagenic call under setting [10] was “no conclusion”.

`Nc1cccc2cc3ccccc3nc12`: the mutagenic call (Species/Cell Type: Saccharomyces cerevisiae, Assay Type: Forward gene mutation, Assay Code: YEFT, Evaluation Type: Evaluation A (Pre-1980)) is “no conclusion” and the mutagenic call under setting [10] is “no conclusion”.

For `COc1cc(/C=N/NC(=O)COc2ccc(Br)cc2CN(C)C)ccc1O`, the mutagenic call under setting [10] is “no conclusion”.

Turning to `O=S1(=O)CCCO1`, the mutagenic call by setting is: under setting [1], “active; positive”; (Species/Cell Type: Fischer rat embryo (RLV/1706) cells, Assay Type: Cell transformation, viral enhanced, Assay Code: CTR+, Evaluation Type: Evaluation A (Pre-1980)) “active; positive”; (Species/Cell Type: Hordeum vulgare (barley), Assay Type: Chromosome aberrations, Assay Code: HOC+D, Dose Response: With dose response, Evaluation Type: Evaluation A (Pre-1980)) “active; positive”; (Species/Cell Type: Human diploid fibroblasts, Assay Type: Unscheduled DNA synthesis (UDS) in vitro, DNA effects, Assay Code: UDH+D, Dose Response: With dose response, Evaluation Type: Evaluation A (Pre-1980)) “active; positive”; (Species/Cell Type: Nonhuman, Assay Type: Sister-chromatid exchange (SCE) in vitro, Assay Code: SC2+D, Dose Response: With dose response, Evaluation Type: Evaluation A (Pre-1980)) “active; positive”; under setting [5], “active; positive”. Moreover, the mutagenic call under setting [6] was “active; positive”; the mutagenic call under setting [7] is “active; positive”; the mutagenic call (Species/Cell Type: Salmonella typhimurium, Assay Type: Forward and reverse gene mutation, host-mediated assay, Assay Code: HMA+, Evaluation Type: Evaluation A (Pre-1980)) is “active; positive”; the mutagenic call (Species/Cell Type: Schizosaccharomyces pombe, Assay Type: Reverse gene mutation, Assay Code: YEZ+, Evaluation Type: Evaluation A (Pre-1980)) is “active; positive”; the mutagenic call (Species/Cell Type: Syrian hamster embryo (SA7/SHE) cells, Assay Type: Cell transformation, viral enhanced, Assay Code: CT7+, Evaluation Type: Evaluation A (Pre-1980)) is “active; positive”; the mutagenic call (Species/Cell Type: Syrian hamster embryo (SHE) cells, Assay Type: Cell transformation, clonal assay, Assay Code: CTCT, Evaluation Type: Evaluation A (Pre-1980)) is recorded as “no conclusion”. Besides, the mutagenic call under setting [11] is “active; positive”. Further, the call under setting [9] is “active; positive”.

As for `O=S(=O)(O)c1cc(O)c2c(O)c(N=Nc3ccccc3)c(S(=O)(=O)O)cc2c1`, the mutagenic call under setting [8] is given as “no conclusion”.

As to `CSc1nc2c(c(=O)n(C)c(=O)n2C)n1C`, under “Species/Cell Type: Allium cepa, Assay Type: Chromosome aberrations, Assay Code: ALC+D, Dose Response: With dose response, Evaluation Type: Evaluation A (Pre-1980)”, the mutagenic call was “active; positive”.

Take `O=c1[nH]cc(Br)c(=O)[nH]1`: the mutagenic call by setting is: (Species/Cell Type: Hordeum vulgare (barley), Assay Type: Gene mutation, Assay Code: HOM+D, Dose Response: With dose response, Evaluation Type: Evaluation A (Pre-1980)) “active; positive”; (Species/Cell Type: Saccharomyces cerevisiae, Assay Type: Mitotic recombination or gene conversion, Assay Code: YEH-, Evaluation Type: Evaluation A (Pre-1980)) “inactive; negative”; under setting [11], “active; positive”.

As to `Nc1ccc(-c2ccc(F)cc2)cc1`, the mutagenic call (Species/Cell Type: Mouse embryo (AKR/ME) cells, Assay Type: Cell transformation, Assay Code: CTK+, Evaluation Type: Evaluation A (Pre-1980)) was “active; positive”.

As to `CCCCCCCCCCCCCC(=O)N(O)c1ccc2c(c1)Cc1ccccc1-2`, the mutagenic call runs as follows: under setting [2], “inactive; negative”; under setting [7], “active; positive”.

With `C=CC=O`, the mutagenic call under setting [4] is “active; positive”.

With `C[C@]12CC[C@@H](O)C[C@@H]1CC[C@@H]1[C@@H]2CC[C@]2(C)C(=O)CC[C@@H]12`, the mutagenic call (Species/Cell Type: Mouse, Sex: Male, Assay Type: Sperm morphology, Assay Code: SPI-, Evaluation Type: Evaluation A (Pre-1980)) was “inactive; negative”.
